In US20050250677A1, “Glycopeptide antibiotic derivatives” (priority 2002, published 2005):
Where two headings read alike, the source gives them in different places.

Columns and labels:
HSV-2 (G) = assay: Anti-HSV-2 assay: virus-induced cytopathicity in HEL cell cultures
HEL cells [1] = conditions: read-out: CC50 (HEL)
HSV-1 (KOS) = assay: Anti-HSV-1 assay: virus-induced cytopathicity in HEL cell cultures
VZV (wild-type strains) = assay: Anti-VZV assay (wild-type strains): virus-induced cytopathicity in HEL cell cultures; type: cell-based, varicella-zoster virus; conditions: for EC50: HEL cell cultures
HEL cells [2] = system: HEL cells
HIV-1(HE) = assay: Inhibition of HIV-1 (HE)-induced cytopathicity in MOLT4/C8 cells; type: cell-based
HIV-1 (HE) = assay: Inhibition of HIV-1 (HE)-induced cytopathicity in CEM/0 cells; type: cell-based
human lymphocyte CEM = assay: Cytostatic activity assay, CEM cells; type: cell-based; conditions: read-out: IC50 CEM (compound concentration required to inhibit tumor cell proliferation by 50%)
[3] = system: human lymphocyte Molt4/clone 8; assay: Cytostatic activity assay, Molt4/clone 8 cells; type: cell-based; conditions: read-out: IC50 Molt4/C8 (compound concentration required to inhibit tumor cell proliferation by 50%)
murine leukemia L1210 = assay: Cytostatic activity assay, L1210 cells; type: cell-based; conditions: read-out: IC50 L1210 (compound concentration required to inhibit tumor cell proliferation by 50%)
HIV-1 (MN) = assay: Inhibition of HIV-1 (MN)-induced cytopathicity in CEM/0 cells; type: cell-based
HIV-2(ROD) = assay: Inhibition of HIV-2 (ROD)-induced cytopathicity (giant cell formation) in CEM cells; type: cell-based; conditions: read-out: EC50 HIV-2 (concentration required to inhibit HIV-induced giant cell formation by 50%); HIV-2, CEM cell cultures
Description: (§1) A variety of glycopeptide antibiotic derivatives of vancomycin, eremomycin and teicoplanin including their aglycon derivatives were evaluated for their inhibitory activity against HIV-1 (IIIB) and HIV-2(ROD) in CEM cell cultures.

[4] = system: mutant HIV-1 strain Lys-103-Asn; assay: Anti-HIV-1 activity against mutant HIV-1 strain Lys-103-Asn in CEM cultures; type: cell-based
HIV-1 (IIIB) = assay: Inhibition of HIV-1 (IIIB)-induced cytopathicity (giant cell formation) in CEM cells; type: cell-based
Description: as §1

HIV-2 (RF) = conditions: read-out: EC50 CEM/0 HIV-2 (RF); CEM/0 cells
Description: (§2) Inhibition of HIV-1 (IIIB, HE, HN) and HIV-2(ROD, EHO, RF)-induced cytopathicity in CEM or C8166 or Molt4/C8 cells was measured in microtiter 96-well plates containing ˜3×10^5 CEM cells/ml, infected with 100 CCID50 of HIV per ml and containing appropriate dilutions of the test compounds. After 4 to 5 days of incubation at 37° C. in a CO2-controlled humidified atmosphere, CEM, C8166 or Molt4/C8 giant (syncytium) cell formation was examined microscopically.

HIV-2 (EHO) = conditions: read-out: EC50 CEM/0 HIV-2 (EHO); CEM/0 cells
Description: as §2

HIV = assay: Selection of resistant HIV strains in cell culture; type: cell-based; conditions: ≧9 weeks of attempts in cell culture
[5] = read-out: EC50 HSV-2 (G), HEL cell cultures
[6] = read-out: EC50 HSV-1 (KOS), HEL cell cultures
[7] = VZV strain OKA, read-out: EC50 VZV (OKA)
[8] = VZV strain YS, read-out: EC50 VZV (YS)
[9] = read-out: EC50 HIV-1 (concentration required to inhibit HIV-induced giant cell formation by 50%), HIV-1, CEM cell cultures

Molecule | EC50 (HSV-2 (G); [5]) | CC50 (HEL cells [1]; HEL cell proliferation) | CC50 (HEL cells [1]; HEL cells, anti-VZV table) | EC50 (HSV-1 (KOS); [6]) | EC50 (VZV (wild-type strains); [7]) | EC50 (VZV (wild-type strains); [8]) | MTC (HEL) (HEL cells [2]) | MTC (HEL) (HEL cells [2]; anti-VZV table) | activity against VZV (VZV (wild-type strains)) | IC50 (human lymphocyte CEM) | IC50 [3] | IC50 (murine leukemia L1210) | EC50 (HIV-2(ROD)) | EC50 (HIV-1 (IIIB); [9]) | other results
CC1(C)SC2C(NC(=O)C3NC(=O)C4NC(=O)C(NC(=O)C5NC(=O)C6NC(=O)C(Cc7ccc(c(Cl)c7)Oc7cc5cc(c7O)Oc5ccc(cc5Cl)C4O)NC(=O)C(N)c4ccc(O)c(c4)Oc4cc(O)cc6c4)c4ccc(O)c(c4)-c4c(O)cc(O)cc43)C(=O)N2C1C(=O)O (stereo not shown) [Compound 145] | 48 µM | > 50 µM | > 50 µM | 48 µM | 3.9 µM | 2.8 µM |  |  |  |  |  |  |  |  | 
CC(C)CC(C(=O)NC1C(=O)NC(CC(N)=O)C(=O)NC2C(=O)NC3C(=O)NC(C(=O)NC(C(=O)O)c4cc(O)c(CN5CCN(Cc6ccc(-c7ccccc7)cc6)CC5)c(O)c4-c4cc3ccc4O)C(O)c3ccc(cc3)Oc3cc2cc(c3O)Oc2ccc(cc2Cl)C1O)N(C)C(=O)OC(C)(C)C (stereo not shown) [Compound 98] |  | > 50 µM | > 50 µM |  | 2.3 µM | 1.3 µM | ≧20-200 μM | ≧20-200 μM | pronounced activity |  |  |  |  |  | EC50 (HSV-2 (G); read-out: EC50 HSV-2): 24 µM; EC50 (HSV-1 (KOS); read-out: EC50 HSV-1): 24 µM
CN(Cc1ccc(Cl)cc1)Cc1c(O)cc2c(c1O)-c1cc(ccc1O)C1NC(=O)C3NC(=O)C4NC(=O)C(Cc5ccc(c(Cl)c5)Oc5cc3cc(c5O)Oc3ccc(cc3Cl)C(O)C(NC1=O)C(=O)NC2C(=O)O)NC(=O)C(N)c1ccc(O)c(c1)Oc1cc(O)cc4c1 (stereo not shown) [Compound 115] | > 16 µM | 50 µM | 50 µM | 80 µM | > 5 µM | 8.9 µM | ≧20-200 μM | ≧20-200 μM |  |  |  |  |  |  | 
CNC(CC(C)C)C(=O)NC1C(=O)NC(CC(N)=O)C(=O)NC2C(=O)NC3C(=O)NC(C(=O)NC(C(=O)O)c4cc(O)c(CN5CCN(Cc6ccc(-c7ccccc7)cc6)CC5)c(O)c4-c4cc3ccc4O)C(O)c3ccc(cc3)Oc3cc2cc(c3O)Oc2ccc(cc2Cl)C1O (stereo not shown) [Compound 6] |  |  | > 50 µM |  | 4.2 µM |  |  | ≧20-200 μM | pronounced activity | > 500 µM | > 500 µM | 250 ± 39 µM | 12 ± 3.5 µM | 5.5 ± 0.7 µM | EC50 (HIV-1(HE)): 22 ± 2.9 µM; EC50 (HIV-1 (HE)): 40 µM; EC50 (HIV-1 (MN)): 20 µM; EC50 [4]: 11 ± 1.4 µM; EC50 (HIV-1 (IIIB); CEM cultures, wild type in mutant panel, read-out: EC50 HIV-1 IIIB): 5.5 ± 0.7 µM; EC50 (HIV-1 (IIIB); CEM/0 cells, read-out: EC50 CEM/0 HIV-1 (IIIB)): 5.5 ± 0.7 µM; EC50 (HIV-2 (RF)): 16 ± 5.7 µM; EC50 (HIV-2 (EHO)): 50 µM
CCCCCCCCCCNCc1c(O)cc2c(c1O)-c1cc(ccc1O)C1NC(=O)C3NC(=O)C4NC(=O)C(Cc5ccc(c(Cl)c5)Oc5cc3cc(c5O)Oc3ccc(cc3Cl)C(O)C(NC1=O)C(=O)NC2C(=O)NCCCN(C)C)NC(=O)C(N)c1ccc(O)c(c1)Oc1cc(O)cc4c1 (stereo not shown) [Compound 15] |  |  |  |  |  |  |  |  |  | > 100 µM | > 100 µM | 48 ± 8 µM | 6 ± 3.9 µM | 1.4 ± 0.6 µM | selection of resistant virus strains (HIV): failed
Ristosaminylaglycon of ristomycin [Compound 88] | > 200 µM | > 50 µM |  | 120 µM |  |  |  |  |  |  |  |  |  |  | 
